In patent US9200286B2 (THE RESEARCH FOUNDATION FOR THE STATE UNIVERSITY OF NEW YORK, priority 2010, dated 2015):
Read-outs that look alike come from different tables or passages of the source.

How the values were obtained:
GluA2Qflip AMPA receptor = GluA2Qflip AMPA receptor (Rattus norvegicus, UniProt P19491); settings: for Ki: from A/A(I) vs inhibitor concentration; for inhibition by A/A(I), ratio of whole-cell current amplitude in absence and presence of aptamer: 1 μM aptamer (FIG. 3, FIG. 5)
Chain of GluA2Qflip AMPA receptor (P19491 22-883 isoform P19491-2 limits assumed): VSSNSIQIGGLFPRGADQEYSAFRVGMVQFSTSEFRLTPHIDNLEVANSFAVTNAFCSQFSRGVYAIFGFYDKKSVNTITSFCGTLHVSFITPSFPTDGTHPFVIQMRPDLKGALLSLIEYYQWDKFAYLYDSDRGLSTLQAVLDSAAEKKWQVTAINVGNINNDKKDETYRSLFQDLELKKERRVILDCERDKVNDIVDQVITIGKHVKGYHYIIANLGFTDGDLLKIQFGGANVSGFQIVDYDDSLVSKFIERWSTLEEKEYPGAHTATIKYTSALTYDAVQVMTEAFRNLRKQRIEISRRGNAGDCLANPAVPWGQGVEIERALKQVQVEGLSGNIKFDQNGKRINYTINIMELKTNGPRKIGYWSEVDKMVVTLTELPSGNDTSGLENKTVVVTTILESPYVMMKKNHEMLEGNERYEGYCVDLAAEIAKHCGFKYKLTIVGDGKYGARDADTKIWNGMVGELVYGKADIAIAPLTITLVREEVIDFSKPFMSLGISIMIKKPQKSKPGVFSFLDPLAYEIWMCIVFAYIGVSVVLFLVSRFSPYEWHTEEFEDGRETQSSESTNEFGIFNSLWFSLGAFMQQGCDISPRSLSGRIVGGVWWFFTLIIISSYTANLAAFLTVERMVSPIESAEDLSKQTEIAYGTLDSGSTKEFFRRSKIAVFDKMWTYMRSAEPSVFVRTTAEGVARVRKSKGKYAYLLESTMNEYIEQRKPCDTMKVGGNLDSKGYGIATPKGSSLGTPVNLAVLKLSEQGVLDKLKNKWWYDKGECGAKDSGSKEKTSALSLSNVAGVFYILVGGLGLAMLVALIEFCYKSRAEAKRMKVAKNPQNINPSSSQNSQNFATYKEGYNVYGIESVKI
Method: The putative inhibitory property of the four sequences was then functionally tested by the use of whole-cell current recording with GluA2Qflip expressed in HEK-293 cells. […] The current was recorded at −60 mV, pH 7.4 and 22° C. with the same HEK-293 cells expressing GluA2Qflip that were used for selection.
The procedure for whole-cell current recording used to assay putative aptamers is known in the art. For the present invention, all recordings were at −60 mV and 22° C. The recording electrode was filled with the buffer (in mM): 110 CsF, 30 CsCl, 4 NaCl, 0.5 CaCl2, 5 EGTA, and 10 HEPES (pH 7.4 adjusted by CsOH). The extracellular buffer composition used is described supra. All other buffers used were previously described. The whole-cell current was recorded using an Axopatch 200B amplifier at a cutoff frequency of 2-20 kHz by a built-in, four-pole Bessel filter and digitized at 5-50 kHz sampling frequency using a Digidata 1322A (Molecular Devices). pClamp 8 (Molecular Devices, Sunnyvale Calif.) was used for data acquisition.
Using whole-cell recording, the putative inhibitory property for each aptamer was tested with HEK 293 cells expressing GluA2Qflip receptors and expressed as the ratio of the whole-cell current amplitude in the absence and presence of an aptamer, that is, A/A(I). The current was recorded at −60 mV, pH 7.4 and 22° C. with the same HEK-293 cell expressing GluA2Qflip.
Selected RNA sequences were assayed using whole-cell current recording with GluA2Qflip. […] The third round of the library or “pool 3” at 1 μM was used as a control. The ‘*’ indicates P≦0.05 from the two-tailed Student's t test (H0: μ=μ0=1, 1 being the theoretical value of no inhibition, marked as the dashed line).
The ratio of the whole-cell current amplitude in the absence and presence of a putative aptamer or A/A(I) as a function of aptamer concentration was used to independently measure inhibition constants (29), as illustrated in Equations 7a and 7b (29). These equations were derived based on the same general mechanism of channel opening described earlier. KI, app is the apparent inhibition constant for the inhibitor;
Thus the inhibition constant for the closed-channel conformation or state was determined from A/A(I) vs. inhibitor concentration by Equations 7a and 7b. Likewise, at a saturating ligand concentration (i.e., L>>K1), the majority of the receptors were in the open-channel state. Thus the inhibition constant for the open-channel state was determined.
The original cDNAs in pBlueScript encoding rat GluA1, 2 and 3 AMPA receptors and GluK2 kainate receptor were kindly provided by Steve Heinemann. The GluA4 DNA plasmid was kindly provided by Peter Seeburg. The GluK1 plasmid was kindly provided by Geoffrey Swanson. The cDNAs of all three NMDA receptor subunits were gifts from John Woodward. All DNA plasmids were propagated using Escherichia coli host (DH5α) and purified using QIAGEN DNA purification kits.
All of the receptors were transiently expressed in HEK-2935 cell. HEK-293S cells were maintained in Dulbecco's modified Eagle's medium (DMEM) supplemented with 10% fetal bovine serum and 1% penicillin in a 37° C., 5% CO2, humidified incubator. Receptors were transiently transfected by using calcium phosphate or lipofectamine 2000 (Invitrogen). The DNA plasmids encoding green fluorescent protein (GFP) and T-antigen (TAg) were cotransfected in HEK-293S cells. GFP was used as a transfection marker for cell recording, and TAg was cotransfected to potentiate the receptor expression at the single-cell level (51). Transfected cells were allowed to grow for 48 hour before they were used for recording.
The procedure for whole-cell current recording to assay the inhibitory property of an RNA aptamer is known to those of skill in the art and has been previously described (47). […] The extracellular buffer composition is described above (see “Receptor Preparation”).

GluA1flip = GluA1flip (Rattus norvegicus, UniProt P19490); experiment: Subunit selectivity, whole-cell recording, GluA1; format: cell-based; settings: closed- and open-channel glutamate concentrations
Chain of GluA1flip (P19490 19-907 isoform P19490-2 limits assumed): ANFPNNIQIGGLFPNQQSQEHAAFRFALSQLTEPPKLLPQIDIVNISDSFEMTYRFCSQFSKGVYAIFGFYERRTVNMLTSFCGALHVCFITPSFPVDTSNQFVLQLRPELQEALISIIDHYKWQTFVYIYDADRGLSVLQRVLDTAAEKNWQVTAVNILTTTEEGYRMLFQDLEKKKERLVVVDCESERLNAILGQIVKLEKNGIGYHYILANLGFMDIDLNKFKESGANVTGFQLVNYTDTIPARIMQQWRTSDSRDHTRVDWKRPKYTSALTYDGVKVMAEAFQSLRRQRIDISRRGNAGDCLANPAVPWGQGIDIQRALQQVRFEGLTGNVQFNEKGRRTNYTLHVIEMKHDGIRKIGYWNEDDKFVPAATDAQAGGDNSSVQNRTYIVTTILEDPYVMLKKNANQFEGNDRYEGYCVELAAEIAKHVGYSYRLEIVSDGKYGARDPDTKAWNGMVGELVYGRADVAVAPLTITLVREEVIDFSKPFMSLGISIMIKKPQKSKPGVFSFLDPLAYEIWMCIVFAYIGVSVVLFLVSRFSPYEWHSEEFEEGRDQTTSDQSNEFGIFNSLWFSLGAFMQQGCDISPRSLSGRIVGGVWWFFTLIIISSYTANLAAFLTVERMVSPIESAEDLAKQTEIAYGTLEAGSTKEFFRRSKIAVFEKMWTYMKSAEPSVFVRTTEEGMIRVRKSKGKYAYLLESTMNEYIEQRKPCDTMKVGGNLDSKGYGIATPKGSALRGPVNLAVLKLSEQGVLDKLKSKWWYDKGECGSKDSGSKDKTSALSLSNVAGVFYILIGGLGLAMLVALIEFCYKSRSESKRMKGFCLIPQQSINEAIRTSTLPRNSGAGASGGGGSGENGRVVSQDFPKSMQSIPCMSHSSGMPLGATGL
Method: The subunit selectivity of AF44/AF42 was assessed with individual subunits of AMPA, kainate and NMDA receptors expressed in HEK-293 cells, and was represented by A/A(I) value collected from whole-cell recording (FIG. 8A).
All of the receptors were transiently expressed in HEK-2935 cell. HEK-293S cells were maintained in Dulbecco's modified Eagle's medium (DMEM) supplemented with 10% fetal bovine serum and 1% penicillin in a 37° C., 5% CO2, humidified incubator. Receptors were transiently transfected by using calcium phosphate or lipofectamine 2000 (Invitrogen). The DNA plasmids encoding green fluorescent protein (GFP) and T-antigen (TAg) were cotransfected in HEK-293S cells. GFP was used as a transfection marker for cell recording, and TAg was cotransfected to potentiate the receptor expression at the single-cell level (51). […]
For recording of the NMDA channels, the intracellular solution contained (in mM) 140 CsCl, 1 MgCl2, 0.1 EGTA, and 10 HEPES (pH 7.2 adjusted by Mg(OH)2), while the extracellular solution contained (in mM) 135 NaCl, 5.4 KCl, 1.8 CaCl2, 10 glucose and 5 HEPES (pH 7.2 adjusted by NaOH). […] The whole-cell current was recorded using an Axopatch-200B amplifier at a cutoff frequency of 2-20 kHz by a built-in, eight-pole Bessel filter and digitized at 5-50 kHz sampling frequency using a Digidata 1322A from Axon Instruments (Molecular Devices, Sunnyvale, Calif.). […]

GluA2Qflip receptor = GluA2Qflip receptor (Rattus norvegicus, UniProt P19491); experiment: Homologous competition binding assay (cold vs hot aptamer); settings: for binding to the receptor in the presence of NBQX: competitive inhibitor, data not shown; for Kd: triplicate data sets
Chain of GluA2Qflip receptor (P19491 22-883 isoform P19491-2 limits assumed): as the sequence (P19491 22-883 isoform P19491-2 limits assumed) above
Excerpt: (§1) In fact, in a homologous competition binding experiment (42) in which the non-radiolabeled aptamer (or cold aptamer) was used to compete against the same, but radiolabeled, aptamer (or hot aptamer), AF44 bound to not only the closed-channel conformation (i.e., the unliganded, closed-channel receptor form) but also the open-channel conformation (FIG. 10). […] The binding results were consistent with noncompetitive sites, because these sites were supposed to be accessible through both the closed- and the open-channel conformations. […] These sites were noncompetitive type because binding to the receptor by either AF44 or AF42 or the full length AF1422 was unaffected in the presence of NBQX, a classic competitive inhibitor.
as §1, with “inhibitor (data not shown).” for “inhibitor.”

[1] = open-channel GluA2Qflip, read-out: Kd, open-channel conformation
[2] = unliganded, closed-channel GluA2Qflip, read-out: Kd, closed-channel conformation

With CNC(=O)N1N=C(c2ccc(N)cc2)c2cc3c(cc2CC1C)OCO3 (stereo not shown) [BDZ-f, 1-(4-aminophenyl)-3-methylcarbamoyl-4-methyl-7,8-methylenedioxy-3,4-dihydro-5H-2,3-benzodiazepine, reference compound] the “inhibition of the non-desensitizing phase of the receptor response” value (GluA2Qflip AMPA receptor; 0.1 mM glutamate, AF44/AF42 up to 12.5 μM, BDZ-f up to 20 μM) was “uninhibited”, the “inhibition of GluA2Qflip in the subunit selectivity test, A/A(I)” value (GluA2Qflip AMPA receptor; FIG. 8A/8B, two glutamate concentrations) was “inhibited” and the Ki (GluA2Qflip AMPA receptor; KI for the closed-channel conformation, 100 μM glutamate, -60 mV, 22 °C) was 3800 ± 400 nM. For the same molecule, the Ki (GluA2Qflip AMPA receptor; KI for the open-channel conformation, 3 mM glutamate) was 5400 ± 800 nM and the “effect on GluA1, A/A(I)” value (GluA1flip) was “inhibited”.

With “AF20: truncated AF1422 containing only the 5' stem loop, SEQ ID NO: 7 (GGGAGAAUUCAACUGCCAUC; listed as RNA, chemistry not fully specified)” the “inhibition by A/A(I), ratio of whole-cell current amplitude in absence and presence of aptamer” value (“inhibition by A/A(I), ratio” for short) (GluA2Qflip AMPA receptor; 100 μM glutamate) was “not sufficient to act either alone as an inhibitor or together with AF42 as an inhibitory pair”.

In the case of “AF38: AF42 with terminal loop removed, SEQ ID NO: 6 (GGGUCGUUAGAGCAUCAGUACACCAACGGUGCGAGCCC; listed as RNA, chemistry not fully specified)”, the “inhibition by A/A(I), ratio” value (GluA2Qflip AMPA receptor; 100 μM glutamate) is reported as “total loss of function”.

With “AF42: 42-nucleotide RNA truncated from AF1422, SEQ ID NO: 5 (GGGAACGGUGCCAGUCCGAAACGGAUCGUUAGAGCAUCAGUA; listed as RNA, chemistry not given here)” the “binding to the receptor in the presence of NBQX” value (from here on “binding to the receptor”) (GluA2Qflip receptor) was “unaffected”, the Kd (GluA2Qflip receptor; [1]) was 44 ± 11 nM and the Kd (GluA2Qflip receptor; [2]) was 57 ± 21 nM. For the same molecule, the “inhibition by A/A(I), ratio” value (GluA2Qflip AMPA receptor; 100 μM glutamate) was “did not render any inhibition”.

In the case of “AF44: 44-nucleotide RNA truncated from AF1422, G22 replaced with A22, SEQ ID NO: 4 (GGGAGAAUUCAACUGCCACGGAUAAUAGCCAAUACUACAACCGU; listed as RNA, chemistry not given here)”, the “binding to the receptor” value (GluA2Qflip receptor) is reported as “unaffected”, the Kd (GluA2Qflip receptor; [1]) is reported as 48 ± 13 nM and the Kd (GluA2Qflip receptor; [2]) is reported as 44 ± 18 nM. For the same molecule, the “inhibition by A/A(I), ratio” value (GluA2Qflip AMPA receptor; 100 μM glutamate) was “did not render any inhibition”.

B1: AF78: truncated sequence of AF1422, SEQ ID NO: 3, lacking the 5' stem-loop (nucleic acid)
chain: GGGAGCCAGAAGUGUAAUAGCCAACGGUGCCAGUCCGAAACGGAUCGUUAGAGCAUCAGUACUACAAGCUUCUGGACU
modifications: listed as RNA, chemistry not fully specified
For B1, the “inhibition by A/A(I), ratio” value (GluA2Qflip AMPA receptor; 100 μM glutamate) was “non-inhibitory”.

B2: AF1422: RNA aptamer, SEQ ID NO: 1, most enriched SELEX sequence binding closed-channel GluA2Qflip (nucleic acid)
chain: GGGAGAAUUCAACUGCCAUCUAGGCAGAAGUGUAAUAGCCAACGGUGCCAGUCCGAAACGGAUCGUUAGAGCAUCAGUACUACAAGCUUCUGGACUCGGU
modifications: listed as RNA, chemistry not given here
In the case of B2, the “binding to the receptor” value (GluA2Qflip receptor) is reported as “unaffected”, the “inhibition by A/A(I), ratio” value (GluA2Qflip AMPA receptor; 100 μM glutamate) is reported as “one of the most potent inhibitors” and the “inhibition of closed-channel versus open-channel conformation” value (GluA2Qflip AMPA receptor; low (100 μM) vs high (3 mM) glutamate) is reported as “inhibited the closed-channel, preferentially over the open-channel”.
